PMC4685510, “A Cell Biologist’s Field Guide to Aurora Kinase Inhibitors” (Frontiers in Oncology, 2015)
Read-outs that look alike come from different tables or passages of the source.

How the values were obtained:
Experiment in all cases: biochemical
Type in all cases: biochemical
[1] = target: 363 human kinases (including Aurora A/B/C) (Homo sapiens, UniProt Q07002); settings: CDK18/cyclin Y (PCTK3), [ATP] 50 µM; for remaining activity at 0.1 µM: 100 nM; for remaining activity at 0.1 µM / remaining activity at 0.5 µM: read-out: % Enzyme Activity (relative to DMSO controls)
Sequence of 363 human kinases (including Aurora A/B/C) (Homo sapiens, UniProt Q07002) (Q07002 whole entry): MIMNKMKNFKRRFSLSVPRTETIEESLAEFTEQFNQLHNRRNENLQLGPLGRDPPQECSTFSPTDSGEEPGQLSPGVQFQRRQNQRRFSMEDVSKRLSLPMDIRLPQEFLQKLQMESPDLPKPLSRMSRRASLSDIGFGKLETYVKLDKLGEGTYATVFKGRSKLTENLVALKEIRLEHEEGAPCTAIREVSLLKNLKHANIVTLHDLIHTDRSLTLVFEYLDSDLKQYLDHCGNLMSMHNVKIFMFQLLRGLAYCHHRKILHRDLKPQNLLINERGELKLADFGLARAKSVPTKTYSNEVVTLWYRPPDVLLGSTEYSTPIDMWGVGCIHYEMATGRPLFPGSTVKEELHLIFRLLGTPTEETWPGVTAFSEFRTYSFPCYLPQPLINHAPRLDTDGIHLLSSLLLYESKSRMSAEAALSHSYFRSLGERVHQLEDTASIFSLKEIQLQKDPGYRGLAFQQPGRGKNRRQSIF
From the text: (§1) However, the Aurora A/B selectivity ratios derived from our in vitro and in vivo data can be compared to prioritize inhibitors.

[2] = target: 363 human kinases (including Aurora A/B/C) (Homo sapiens, UniProt Q15208); settings: STK38/NDR1; for remaining activity at 0.1 µM: 100 nM; for remaining activity at 0.1 µM / remaining activity at 0.5 µM: read-out: % Enzyme Activity (relative to DMSO controls)
Sequence of 363 human kinases (including Aurora A/B/C) (Homo sapiens, UniProt Q15208) (Q15208 whole entry): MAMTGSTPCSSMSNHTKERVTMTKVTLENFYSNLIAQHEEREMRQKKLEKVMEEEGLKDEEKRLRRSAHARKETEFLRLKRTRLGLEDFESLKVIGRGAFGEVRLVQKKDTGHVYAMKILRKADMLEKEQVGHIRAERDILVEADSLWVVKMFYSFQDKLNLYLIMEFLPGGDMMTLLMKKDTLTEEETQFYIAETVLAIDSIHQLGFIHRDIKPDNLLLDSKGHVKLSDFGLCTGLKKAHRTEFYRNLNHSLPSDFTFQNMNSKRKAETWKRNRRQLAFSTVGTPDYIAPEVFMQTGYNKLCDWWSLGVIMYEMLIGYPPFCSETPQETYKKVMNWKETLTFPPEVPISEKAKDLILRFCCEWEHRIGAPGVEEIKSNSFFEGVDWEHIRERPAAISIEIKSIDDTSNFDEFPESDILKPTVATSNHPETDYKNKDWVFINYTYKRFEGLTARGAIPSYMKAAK
From the text: as §1

[3] = target: 363 human kinases (including Aurora A/B/C) (Homo sapiens, UniProt Q9Y572); settings: RIPK3; for remaining activity at 0.1 µM: 100 nM; for remaining activity at 0.1 µM / remaining activity at 0.5 µM: read-out: % Enzyme Activity (relative to DMSO controls)
Sequence of 363 human kinases (including Aurora A/B/C) (Homo sapiens, UniProt Q9Y572) (Q9Y572 whole entry): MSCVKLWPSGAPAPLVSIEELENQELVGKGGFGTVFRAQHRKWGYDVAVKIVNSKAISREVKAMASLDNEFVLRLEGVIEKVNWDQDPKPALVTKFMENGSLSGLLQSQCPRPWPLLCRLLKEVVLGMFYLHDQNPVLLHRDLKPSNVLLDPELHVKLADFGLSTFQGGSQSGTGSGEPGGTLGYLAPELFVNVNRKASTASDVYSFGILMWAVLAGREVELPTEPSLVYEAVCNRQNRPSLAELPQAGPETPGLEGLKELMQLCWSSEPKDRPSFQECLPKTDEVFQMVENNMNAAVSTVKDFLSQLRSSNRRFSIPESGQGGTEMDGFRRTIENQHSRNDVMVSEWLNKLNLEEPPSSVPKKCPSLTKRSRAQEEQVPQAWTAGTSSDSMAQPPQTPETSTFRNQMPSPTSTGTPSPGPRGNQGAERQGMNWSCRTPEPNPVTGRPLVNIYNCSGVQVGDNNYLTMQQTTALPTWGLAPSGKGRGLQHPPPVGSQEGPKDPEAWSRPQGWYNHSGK
From the text: as §1

[4] = target: T1, 363 human kinases (including Aurora A/B/C) (Homo sapiens, UniProt P30530); settings: AXL, [ATP] 100 µM; for remaining activity at 0.1 µM: 100 nM; for remaining activity at 0.1 µM / remaining activity at 0.5 µM: read-out: % Enzyme Activity (relative to DMSO controls)
T1 sequence (P30530 26-894): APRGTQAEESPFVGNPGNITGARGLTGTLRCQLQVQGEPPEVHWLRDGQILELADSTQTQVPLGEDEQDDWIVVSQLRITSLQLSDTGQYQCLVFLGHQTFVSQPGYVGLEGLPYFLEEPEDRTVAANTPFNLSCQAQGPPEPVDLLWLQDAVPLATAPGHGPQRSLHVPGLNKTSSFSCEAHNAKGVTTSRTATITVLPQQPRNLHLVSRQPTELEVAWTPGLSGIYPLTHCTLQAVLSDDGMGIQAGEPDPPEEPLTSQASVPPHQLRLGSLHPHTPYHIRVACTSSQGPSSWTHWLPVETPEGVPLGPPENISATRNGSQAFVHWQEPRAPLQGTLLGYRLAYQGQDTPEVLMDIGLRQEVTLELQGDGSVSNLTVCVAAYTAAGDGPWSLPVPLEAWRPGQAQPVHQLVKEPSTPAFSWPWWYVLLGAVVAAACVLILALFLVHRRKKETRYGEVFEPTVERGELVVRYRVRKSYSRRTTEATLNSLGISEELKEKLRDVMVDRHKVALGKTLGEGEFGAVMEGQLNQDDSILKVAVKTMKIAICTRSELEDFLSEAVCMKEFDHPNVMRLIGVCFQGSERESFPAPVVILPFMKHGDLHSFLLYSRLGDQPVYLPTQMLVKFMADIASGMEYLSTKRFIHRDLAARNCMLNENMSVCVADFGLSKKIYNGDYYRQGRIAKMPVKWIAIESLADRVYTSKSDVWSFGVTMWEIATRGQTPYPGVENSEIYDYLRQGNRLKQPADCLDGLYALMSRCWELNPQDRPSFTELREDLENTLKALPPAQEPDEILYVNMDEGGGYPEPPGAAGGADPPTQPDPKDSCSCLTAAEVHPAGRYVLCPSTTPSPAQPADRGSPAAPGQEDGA
From the text: as §1

[5] = target: T2, 363 human kinases (including Aurora A/B/C) (Homo sapiens, UniProt P41743); settings: PKCiota; for remaining activity at 0.1 µM: 100 nM; for remaining activity at 0.1 µM / remaining activity at 0.5 µM: read-out: % Enzyme Activity (relative to DMSO controls)
T2 sequence (P41743 1-596): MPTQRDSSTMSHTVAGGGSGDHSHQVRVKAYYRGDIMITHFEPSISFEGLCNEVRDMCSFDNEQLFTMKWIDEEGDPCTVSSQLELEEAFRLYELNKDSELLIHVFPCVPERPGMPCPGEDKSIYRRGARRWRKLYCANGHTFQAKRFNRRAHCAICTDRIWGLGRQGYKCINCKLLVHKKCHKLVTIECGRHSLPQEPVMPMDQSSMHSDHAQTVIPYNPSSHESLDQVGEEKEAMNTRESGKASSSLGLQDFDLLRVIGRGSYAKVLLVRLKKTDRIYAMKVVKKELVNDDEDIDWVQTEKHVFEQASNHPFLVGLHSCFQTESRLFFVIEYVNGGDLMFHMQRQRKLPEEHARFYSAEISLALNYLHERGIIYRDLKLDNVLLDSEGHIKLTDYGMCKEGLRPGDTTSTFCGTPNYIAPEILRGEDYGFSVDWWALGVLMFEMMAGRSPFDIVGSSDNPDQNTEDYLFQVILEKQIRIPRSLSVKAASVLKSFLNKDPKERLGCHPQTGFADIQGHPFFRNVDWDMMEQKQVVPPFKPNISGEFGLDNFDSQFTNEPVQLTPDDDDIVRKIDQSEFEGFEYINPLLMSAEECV
From the text: as §1

[6] = target: 363 human kinases (including Aurora A/B/C) (Homo sapiens, UniProt O75914); settings: PAK3; for remaining activity at 0.1 µM: 100 nM; for remaining activity at 0.1 µM / remaining activity at 0.5 µM: read-out: % Enzyme Activity (relative to DMSO controls)
Sequence of 363 human kinases (including Aurora A/B/C) (Homo sapiens, UniProt O75914) (O75914 whole entry): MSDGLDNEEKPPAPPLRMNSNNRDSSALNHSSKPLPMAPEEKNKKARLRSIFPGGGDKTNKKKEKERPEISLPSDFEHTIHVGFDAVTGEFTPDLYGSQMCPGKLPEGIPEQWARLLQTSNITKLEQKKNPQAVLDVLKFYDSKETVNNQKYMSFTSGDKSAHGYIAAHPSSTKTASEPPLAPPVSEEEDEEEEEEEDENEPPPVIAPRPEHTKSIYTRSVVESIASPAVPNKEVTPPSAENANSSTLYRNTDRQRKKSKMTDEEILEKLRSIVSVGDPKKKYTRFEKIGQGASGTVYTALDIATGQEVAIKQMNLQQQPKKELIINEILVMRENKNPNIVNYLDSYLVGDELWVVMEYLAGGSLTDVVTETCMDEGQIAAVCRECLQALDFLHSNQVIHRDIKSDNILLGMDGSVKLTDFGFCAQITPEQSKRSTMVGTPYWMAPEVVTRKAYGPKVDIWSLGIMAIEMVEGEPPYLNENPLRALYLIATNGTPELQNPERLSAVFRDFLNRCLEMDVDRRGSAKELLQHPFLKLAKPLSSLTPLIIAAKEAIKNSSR
From the text: as §1

[7] = target: 363 human kinases (including Aurora A/B/C) (Homo sapiens, UniProt P06493); settings: for remaining activity at 0.1 µM: 100 nM; for remaining activity at 0.1 µM / remaining activity at 0.5 µM: read-out: % Enzyme Activity (relative to DMSO controls); for remaining activity at 0.5 µM / % Enzyme Activity (relative to DMSO controls): 500 nM
Sequence of 363 human kinases (including Aurora A/B/C) (Homo sapiens, UniProt P06493) (P06493 whole entry): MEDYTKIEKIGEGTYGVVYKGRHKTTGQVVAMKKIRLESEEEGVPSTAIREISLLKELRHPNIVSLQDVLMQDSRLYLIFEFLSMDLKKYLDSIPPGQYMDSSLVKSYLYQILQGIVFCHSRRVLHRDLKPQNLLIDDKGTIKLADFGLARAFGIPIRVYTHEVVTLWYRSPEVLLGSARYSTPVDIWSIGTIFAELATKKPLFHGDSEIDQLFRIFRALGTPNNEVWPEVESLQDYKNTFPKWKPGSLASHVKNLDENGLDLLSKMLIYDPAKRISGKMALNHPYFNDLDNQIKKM
From the text: as §1

Row | Compound | remaining activity at 0.1 µM [1] [%] | remaining activity at 0.5 µM ([1]; 500 nM) [%] | remaining activity at 0.1 µM [2] [%] | remaining activity at 0.5 µM ([2]; 500 nM) [%] | remaining activity at 0.1 µM [3] [%] | remaining activity at 0.5 µM ([3]; 500 nM) [%] | remaining activity at 0.1 µM [4] [%] | remaining activity at 0.5 µM ([4]; 500 nM) [%] | remaining activity at 0.1 µM [5] [%] | remaining activity at 0.5 µM ([5]; 500 nM) [%] | remaining activity at 0.1 µM [6] [%] | remaining activity at 0.5 µM ([6]; 500 nM) [%] | remaining activity at 0.1 µM ([7]; CDK1/cyclin A, [ATP] 10 µM) [%] | remaining activity at 0.5 µM ([7]; CDK1/cyclin A, [ATP] 10 µM) [%] | remaining activity at 0.1 µM ([7]; CDK1/cyclin B, [ATP] 20 µM) [%] | remaining activity at 0.5 µM ([7]; CDK1/cyclin B, [ATP] 20 µM) [%] | remaining activity at 0.1 µM ([7]; CDK1/cyclin E, [ATP] 20 µM) [%] | remaining activity at 0.5 µM ([7]; CDK1/cyclin E, [ATP] 20 µM) [%] | also measured
1 | O=C(O)[C@]1(Cc2cccc(Nc3nccs3)n2)CC[C@@H](Oc2cccc(Cl)c2F)CC1 [MK-5108] | 85.9 | 108 | 96 | 86.5 | 122 | 87.7 | 38.5 | 14 | 94.3 | 102 | 92.3 | 88.8 | 92.7 | 76.5 | 95.3 | 64 | 101 | 84.6 | 
2 | O=C(c1cccc(Cl)c1F)N1CCN(Cc2cccc(Nc3nccs3)n2)CC1 [MK-8745] |  | 107 |  | 91.2 |  | 94.8 |  | 9.98 |  | 98 |  | 94 |  | 86.8 |  | 79.4 |  | 94.9 | % Enzyme Activity (relative to DMSO controls) ([1]; 500 nM): 106.28%; % Enzyme Activity (relative to DMSO controls) ([2]; 500 nM): 90.44%; % Enzyme Activity (relative to DMSO controls) ([3]; 500 nM): 90.81%; % Enzyme Activity (relative to DMSO controls) ([4]; 500 nM): 9.19%; % Enzyme Activity (relative to DMSO controls) ([5]; 500 nM): 95.15%; % Enzyme Activity (relative to DMSO controls) ([6]; 500 nM): 91.67%; % Enzyme Activity (relative to DMSO controls) ([7]; CDK1/cyclin A, [ATP] 10 µM): 86.34%; % Enzyme Activity (relative to DMSO controls) ([7]; CDK1/cyclin B, [ATP] 20 µM): 78.80%; % Enzyme Activity (relative to DMSO controls) ([7]; CDK1/cyclin E, [ATP] 20 µM): 93.92%
3 | CCn1cc(-c2ccnc3[nH]c(-c4cccc(CN(C)C)c4)cc23)c(-c2ccc(NC(=O)N(C)C)cc2)n1 [GSK1070916] | 107 |  | 88 |  | 88.3 |  | 103 |  | 99.1 |  | 92.5 |  | 106 |  | 84.6 |  | 100 |  | 
